Experimental data reported in patent US20060141027A1, “Sublingual administration of non-steroidal anti-inflammatory pharmacological substances” (priority 2003, published 2006).

Test: experimentation on patients: sublingual versus traditional oral administration of FANS
Assay type: in vivo
Settings: sublingual administration compared with oral formulation of the same agent
Text: In the performed experimentation, the used sublingual preparations consisted of tablets which can be separated in two parts.

Which “therapeutic dose necessary for obtaining the desired anti-inflammatory effect” value (“therapeutic dose necessary” below) does the source give for O=C(O)Cc1ccccc1Nc1c(Cl)cccc1Cl [diclofenac] here?
Its value is “reduction of the therapeutic dosage”.

With CC(C)Cc1ccc(C(C)C(=O)O)cc1 (centres unmarked) [ibuprofen] as the compound, how does the “therapeutic dose necessary” value read?
Its value is “reduction of the therapeutic dosage”.

For CC(C(=O)O)c1cccc(C(=O)c2ccccc2)c1 (centres unmarked) [ketoprofen], which “therapeutic dose necessary” value is on record?
The value was “reduction of the therapeutic dosage”.

With CS(=O)(=O)Nc1ccc([N+](=O)[O-])cc1Oc1ccccc1 [nimesulid, nimesulide] as the compound, how does the “therapeutic dose necessary” value read?
Its value is “reduction of the therapeutic dosage”.

For CC(=O)Nc1ccc(O)cc1 [paracetamol], which “therapeutic dose necessary” value is on record?
Its value is “reduction of the therapeutic dosage”.
